# According to US11123439B2, “Antibody drug conjugates (ADCS) and antibody prodrug conjugates (APDCS) with enzymatically cleavable groups” (Bayer Pharma Aktiengesellschaft, priority 2015, dated 2021):
# Target: T1, legumain (Homo sapiens, UniProt Q99538)
# T1 construct: purchased R&D Systems 2199-CY
# T1 sequence (Q99538 18-323 limits assumed): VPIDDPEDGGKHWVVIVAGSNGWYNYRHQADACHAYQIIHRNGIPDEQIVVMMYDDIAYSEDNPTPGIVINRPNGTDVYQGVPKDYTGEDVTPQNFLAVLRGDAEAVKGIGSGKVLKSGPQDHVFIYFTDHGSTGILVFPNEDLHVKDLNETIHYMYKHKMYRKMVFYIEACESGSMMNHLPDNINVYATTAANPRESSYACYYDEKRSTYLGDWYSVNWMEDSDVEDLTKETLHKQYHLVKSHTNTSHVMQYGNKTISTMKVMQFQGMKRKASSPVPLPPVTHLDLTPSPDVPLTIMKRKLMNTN
# Experiment: Legumain assay (enzymatic cleavage of prodrug)
# Assay type: biochemical
# Details: recombinant human legumain, rh legumain 1 ng/μl, 50 mM MES buffer, 250 mM NaCl, pH 5.0, read-out: half-life of legumain cleavage to the target compound (converted)
# Experimental: The legumain assay was conducted with recombinant human enzyme. The rh legumain enzyme solution (catalogue #2199-CY, R&D Systems) was diluted to the desired concentration in 50 mM Na acetate buffer/100 mM NaCl, pH4.0 and preincubated at 37° C. for 2 h. rh legumain was then adjusted to a final concentration of 1 ng/μl in 50 mM MES buffer, 250 mM NaCl, pH 5.0. For every legumain-cleavable prodrug to be examined, a mixture was made up in a micro reaction vessel (0.5 ml, from Eppendorf). For this purpose, the substrate solution was adjusted to the desired concentration (double concentration) with 50 mM MES buffer, 250 mM NaCl, pH 5.0. For the kinetic measurement of the enzymatic reaction, 250 μl of the legumain solution were first initially charged and the enzyme reaction was started by adding 250 μl of the substrate solution (final concentration: single concentration). At different times, 50 μL samples were taken. This sample was admixed immediately with 100 μl of ice-cold methanol in order to stop the enzymatic reaction and then frozen at −20° C. The times selected for sampling were after 0.5 h, 1 h, 3 h and 24 h. The samples were then analysed by means of RP-HPLC analysis and by LC-MS analysis. The determination of the toxophore released enabled the determination of the half-life t1/2 of the enzymatic reaction. […]
smiles,measurement,value
"CNC(=O)[C@H](CCN(C(=O)CO)[C@@H](c1cc(-c2cc(F)ccc2F)cn1Cc1ccccc1)C(C)(C)C)NC(=O)[C@H](CC(N)=O)NC(=O)[C@H](C)NC(=O)[C@H](C)NC(=O)Cc1ccncc1 [Compound A, N-(Pyridin-4-ylacetyl)-L-alanyl-L-alanyl-N^1-[(2S)-4-[{(1R)-1-[1-benzyl-4-(2,5-difluorophenyl)-1H-pyrrol-2-yl]-2,2-dimethylpropyl}(glycoloyl)amino]-1-(methylamino)-1-oxobutan-2-yl]-L-aspartamide]",half-life,1.1 h
